Experiment [1] relates to IFNγ. The experiment in a line: Mixed leukocyte reaction, IFNγ supernatant levels. It counts as cell-based. To be noted: human mixed leukocyte reaction, 72 hours, 1 μM each agent. As to the method:
(§1) The release of immune activating cytokines IFNγ and TNFα was evaluated in human mixed leukocyte cultures with anti-CD73 monoclonal antibody alone and in combination with an adenosine receptor inhibitor (A2ARi). The levels of IFNγ and TNFα in supernatants were detected by ELISA. Human peripheral blood lymphocytes were set up in a mixed leukocyte reaction for 72 hours and stimulated with anti-CD73 alone, A2AR inhibitor alone or both agents. Peripheral blood mononuclear cells from pairwise combinations of 8 donors were incubated for 72 hours in the presence of 1 μM anti-CD73 antibody MEDI9447 and 1 μM A2ARi SCH58261, either alone or in combination. After incubation, supernatant levels of Interferon gamma (IFNγ) and Tumor Necrosis Factor Alpha (TNFα) were measured using a Mesoscale ELISA plate. The levels of IFNγ and TNFα observed after incubation with each compound were plotted as duplicate fold-control values using levels from incubation with an isotype control antibody as a negative control.

The subject of experiment [2] is TNFα. Kind of experiment: Mixed leukocyte reaction, TNFα supernatant levels. It counts as cell-based. The note with it: human mixed leukocyte reaction, 72 hours, 1 μM each agent. As to the method: as §1
Experiment [3] deals with CT26 murine colon carcinoma. Kind of experiment: CT26 syngeneic tumor model, MEDI9447 mIgG1 with anti-PD-1. Type of experiment: in vivo, Balb/C mice. As to the method:
Syngeneic tumors were established by subcutaneous (SC) injection of 0.1 ml of 5×10^6 CT26 cells/ml suspended in HBSS into the right flanks of 8- to 10-week-old animals.
Tumors were measured by caliper and the volumes of tumors (TV) were calculated using the following formula: TV=(L×W^2)/2 (1)
Mice were randomized into groups based on bodyweight. There were no animal substitutions. 60 female Balb/c mice were used in this study.
Animals were randomly assigned into 6 groups. Animals were administered MEDI9447(mIgG1). Test articles were administered by intraperitoneal (IP) injection twice weekly starting on Day 3.
CT26 murine colon carcinoma were implanted into syngeneic Balb/C mice and treated with anti-CD73 (MEDI9447 mIgG1; 10 mg/kg), anti-PD1 (0.5 mg/kg) or the combination (10 mg/kg anti-CD73 and 0.5 mg/kg anti-PD1). […] Tumor volumes from each group of animals were plotted for individual animals out to study day 40. No control group mice were tumor free by the end of the 40 day study period (See FIG. 6). […] None of the control group mice were tumor free by the end of the study. CT26 tumors were measured in mice treated with anti-CD73 (MEDI9447 mIgG1), anti-PD1 or the combination of anti-CD73 and anti-PD1. Mice were measured until study day 40, and humanely sacrificed once tumors reached 2000 mm^3. […] Median survival increased from 25 and 33 days (anti-CD73 and anti-PD1, respectively) compared to “undefined” at day 40 for the combination.

Experiment [4] concerns CD4+CD25− T cell proliferation. The experiment in a line: AMP-mediated suppression of CD4+CD25− T cell proliferation. To be noted: primary human CD4+CD25− T cells, 100 or 200 μM AMP, 72 hours, CFSE. It counts as cell-based. As to the method: In an assay for AMP-mediated T-cell suppression, primary human CD4^+ T cells depleted of CD25^+ cells were isolated from the content of leukocyte cones and used as effector cells; each cone was processed separately. Briefly, the content from a leukocyte cone was diluted in PBS, then layered over FICOLL-PAQUE® Plus (GE Healthcare, Chalfont St Giles, UK) and centrifuged at 400×g for 40 minutes with brakes turned off. Peripheral blood mononuclear cells (PBMC) were then isolated from the interface and washed with PBS by centrifugation at 200×g for 10 minutes. Supernatant was discarded and cells were suspended in PBS. Viable cells were determined, then pelleted at 350×g for 5 minutes and suspended in ROBOSEP buffer (Stem Cell, Grenoble, France) at a concentration of 5×10^7 per mL. […]
Isolated effector cells were labeled with CFSE probe (3 μM) using the CELLTRACE CFSE cell proliferation kit (Life Technologies, Paisley, UK) at a cell density of 1×10^6 cells per mL in PBS containing 0.1% BSA with an incubation period of 15 minutes at 37° C. […] Phen0203 hIgG1 was received as a ready-to-use formulation (Medlmmune, Gaithersburg, Md.) and was diluted in phosphate-buffered saline (PBS). R347 was received as a ready-to-use formulation (Medlmmune, Gaithersburg, Md.) and was diluted in PBS. […]

Setting [5] is: study day 40, anti-CD73 10 mg/kg, anti-PD1 0.5 mg/kg, ip 2x weekly, 4 doses.

As for “MEDI9447 mIgG1: anti-CD73 antibody MEDI9447 in murine IgG1 format”, in experiment [1], the IFNγ supernatant levels entry is “capable of inducing”. Also, the “TNFα supernatant levels / secretion” value in experiment [2] is listed as “capable of inducing”. The Median survival in experiment [3] (CT26, followed until study day 40) was found to be 25 days. For the same molecule, in experiment [3] (setting [5]), the Survival was found to be 10% and the Tumor free mice was 10%.
On to `Nc1nc2c(cnn2CCc2ccccc2)c2nc(-c3ccco3)nn12` [SCH58261, reference compound], for which, in experiment [1], the IFNγ supernatant levels result is reported as “capable of inducing”. Also, the “T cell proliferation in the presence of AMP” value in experiment [4] was “increase of T-cell proliferation”. The “TNFα supernatant levels / secretion” value in experiment [2] was “capable of inducing”.
Turning to `Nc1ncnc2c1ncn2[C@@H]1O[C@H](COP(=O)(O)CP(=O)(O)O)[C@@H](O)[C@H]1O` [APCP, adenosine 5′-(α,β-methylene)diphosphate], in experiment [4], the “T cell proliferation in the presence of AMP” value was “increase of T-cell proliferation”.

(Values after patent US10864269B2, “Therapeutic combinations comprising anti-CD73 antibodies and uses thereof” (MedImmune Limited, priority 2014, dated 2020).)
